Assay results reported in patent US8993562B2, “Imidazo[1,2-b]pyridazines, processes, uses, intermediates and compositions” (Ferrer Internacional, S.A., priority 2006, dated 2015).

Assays:
male CD1 mice = assay: In vivo predictive sedation-hypnosis test (traveled distance); settings: Mus musculus, ip, 0.5 h, traveled distance over 30 min versus control, read-out: % inhib motor activity; for inhibition in vivo at 0.98 µmol/kg: 0.98 μmol/kg intraperitoneal; for inhibition in vivo at 98 µmol/kg: 98.0 μmol/kg intraperitoneal
Protocol: b) In Vivo Determination of Predictive Sedative-hypnotic Action
The in vivo effects of these compounds were assessed by a predictive sedation-hypnosis test in mice (D. J. Sanger et al., Eur. J. Pharmacol., 313, 35-42, 1996; and G. Griebel et al., Psychopharmacology, 146, 205-213, 1999).
Groups of 5-8 male CD1 mice, weighing 22-26 g at the time of test, were used. […] Compounds were suspended in 0.25% agar with one drop of Tween in a volume of 10 mL/kg. Control animals were given the vehicle alone. Using a Smart System (Panlab, S. L., Spain) the traveled distance in cm is recorded for each mouse at 5-minutes intervals during a period of 30 minutes after dosing. The inhibition percentage of traveled distance of treated animals versus control animals (the first 5 minutes were discarded) was calculated.

α2-GABAA receptor = assay: Ligand-binding assay, radiolabeled flumazenil competition, spinal cord membranes; settings: rat spinal cord membranes, radiolabeled flumazenil 1 nM
Protocol: (§1) a) Ligand-binding Assays. Determination of the Affinity of Test Compounds for α1- and α2-GABAA Receptor
(§2) Male Sprague-Dawley rats weighing 200-250 g at the time of experiment were used. After decapitation of the animal, the cerebellum (tissue that mostly contains α1-GABAA receptor) and spinal cord (tissue that mostly contains α2-GABAA receptor) were removed. The membranes were prepared according to the method by J. Lameh et al. (Prog. Neuro-Psychopharmacol. Biol. Psychiatry, 24, 979-991, 2000) and H. Noguchi et al. (Eur J Pharm, 434, 21-28, 2002) with slight modifications. Once the tissues weighed, they were suspended in 50 mM Tris.HCl (pH 7.4), 1:40 (v/v), or sucrose 0.32 M in the case of spinal cord, homogenized and then centrifuged at 20000 g for 10 minutes at 7° C. The resulting pellet was resuspended under the same conditions and centrifuged again. The pellet was finally resuspended on a minimum volume and kept at −80° C. overnight. A slight modification was used in the case of spinal cord at the first centrifugation step. Centrifugation speed was at 1000 g and the supernatant was collected instead of discarded as in cerebellum. Then, supernatant was centrifuged at 20000 g and resuspended twice more under the same conditions described above for cerebellum. On the next day, the process was repeated until the final pellet was resuspended at a ratio of 1:10 (v/v) in the case of cerebellum and at a ratio of 1:5 (v/v) in the case of spinal cord.
(§3) Affinity was determined by competitive tests using radiolabeled flumazenil as ligand. The tests were performed according to the methods described by S. Arbilla et al. (Eur. J. Pharmacol., 130, 257-263, 1986); and Y. Wu et al. (Eur. J. Pharmacol., 278, 125-132, 1995) using 96-well microtiter plates. The membranes containing the study receptors, flumazenil (radiolabeling at a final concentration of 1 nM) and ascending concentrations of test compounds (in a total volume of 230 μl in 50 mM [pH 7.4] Tris.HCl buffer) were incubated. Simultaneously, the membranes were only incubated with the radiolabeled flumazenil (total binding, 100%) and in the presence of an elevated concentration of unradiolabeled flumazenil (non-specific binding, % estimation of radiolabeled ligand). The reactions started on adding the radiolabeled ligand followed by incubation for 60 minutes at 4° C. At the end of the incubation period, 200 μl of reaction were transferred to a multiscreen plate (Millipore) and filtered using a vacuum manifold and then washed three times with cold test buffer. The multiscreen plates were equipped with a GF/B filter that retained the membranes containing the receptors and the radiolabeled ligand which had been bound to the receptors. After washing, the plates were left till dry. Once dried, scintillation liquid was added and left under stirring overnight. The next day the plates were counted using a Perkin-Elmer Microbeta scintillation counter.
(§4) For analysis of the results the percentage of specific binding for every concentration of test compound was calculated as follows: specific binding−(X−N/T−N)×100 where, X: amount of bound ligand for every concentration of compound. T: total binding, maximum amount bound to the radiolabeled ligand. N: non-specific binding, amount of radiolabeled ligand bound in a non-specific way irrespective of the receptor used.
(§5) Every concentrations of compound were tested in triplicate and their mean values were used to determine the experimental values of % specific binding versus the concentration of compound. Affinity data are expressed as % inhibition at 10^−5M and 10^−7M concentrations.

α1-GABAA receptor = assay: Ligand-binding assay, radiolabeled flumazenil competition, cerebellum membranes; settings: rat cerebellum membranes, radiolabeled flumazenil 1 nM
Protocol: as §1, §2, §3, §4, §5

SMILES: CCCN(CCC)C(=O)Cc1c(-c2ccccc2)nc2ccc(OC)nn12 [Example 26, 2-(6-Methoxy-2-phenyl-imidazo[1,2-b]pyridazin-3-yl)-N,N-dipropyl-acetamide]
- inhibition in vivo at 0.98 µmol/kg (male CD1 mice): 19.2%
- inhibition in vivo at 98 µmol/kg (male CD1 mice): 91.5%
- % inhib 10^−5 M, affinity for the α2-subunit of the GABAA receptor (α2-GABAA receptor): 84.5%
- % inhib 10^−7 M, affinity for the α2-subunit of the GABAA receptor (α2-GABAA receptor): 27.4%
- % inhib 10^−5 M, affinity for the α1-subunit of the GABAA receptor (α1-GABAA receptor): 100.0%
- % inhib 10^−7 M, affinity for the α1-subunit of the GABAA receptor (α1-GABAA receptor): 73.5%

SMILES: CCCN(CCC)C(=O)Cc1c(-c2ccccc2)nc2ccc(C)nn12 [Example 35, 2-(6-Methyl-2-phenyl-imidazo[1,2-b]pyridazin-3-yl)-N,N-dipropyl-acetamide]
- inhibition in vivo at 0.98 µmol/kg (male CD1 mice): 6.76%
- inhibition in vivo at 98 µmol/kg (male CD1 mice): 80.6%
- % inhib 10^−5 M, affinity for the α2-subunit of the GABAA receptor (α2-GABAA receptor): 92.5%
- % inhib 10^−7 M, affinity for the α2-subunit of the GABAA receptor (α2-GABAA receptor): 57.9%
- % inhib 10^−5 M, affinity for the α1-subunit of the GABAA receptor (α1-GABAA receptor): 100.2%
- % inhib 10^−7 M, affinity for the α1-subunit of the GABAA receptor (α1-GABAA receptor): 97.5%

SMILES: CCCN(CCC)C(=O)Cc1c(-c2ccc(F)cc2)nc2ccc(OC)nn12 [Example 41, 2-[2-(4-Fluoro-phenyl)-6-methoxy-imidazo[1,2-b]pyridazin-3-yl]-N,N-dipropyl-acetamide]
- inhibition in vivo at 0.98 µmol/kg (male CD1 mice): 15.7%
- inhibition in vivo at 98 µmol/kg (male CD1 mice): 91.2%
- % inhib 10^−5 M, affinity for the α2-subunit of the GABAA receptor (α2-GABAA receptor): 85.3%
- % inhib 10^−7 M, affinity for the α2-subunit of the GABAA receptor (α2-GABAA receptor): 17.0%
- % inhib 10^−5 M, affinity for the α1-subunit of the GABAA receptor (α1-GABAA receptor): 99.8%
- % inhib 10^−7 M, affinity for the α1-subunit of the GABAA receptor (α1-GABAA receptor): 75.4%

SMILES: CCCN(CCC)C(=O)Cc1c(-c2ccc(F)cc2)nc2ccc(OCC)nn12 [Example 43, 2-[6-Ethoxy-2-(4-fluoro-phenyl)-imidazo[1,2-b]pyridazin-3-yl]-N,N-dipropyl-acetamide]
- inhibition in vivo at 98 µmol/kg (male CD1 mice): 95.7%
- % inhib 10^−5 M, affinity for the α2-subunit of the GABAA receptor (α2-GABAA receptor): 80.3%
- % inhib 10^−7 M, affinity for the α2-subunit of the GABAA receptor (α2-GABAA receptor): 20.1%
- % inhib 10^−5 M, affinity for the α1-subunit of the GABAA receptor (α1-GABAA receptor): 99.5%
- % inhib 10^−7 M, affinity for the α1-subunit of the GABAA receptor (α1-GABAA receptor): 49.9%

SMILES: COc1ccc2nc(-c3ccc(F)cc3)c(CC(=O)N3CCCCC3)n2n1 [Example 65, 2-[2-(4-Fluoro-phenyl)-6-methoxy-imidazo[1,2-b]pyridazin-3-yl]-1-piperidin-1-yl-ethanone]
- inhibition in vivo at 98 µmol/kg (male CD1 mice): 95.5%
- % inhib 10^−5 M, affinity for the α2-subunit of the GABAA receptor (α2-GABAA receptor): 78.5%
- % inhib 10^−7 M, affinity for the α2-subunit of the GABAA receptor (α2-GABAA receptor): 16.3%
- % inhib 10^−5 M, affinity for the α1-subunit of the GABAA receptor (α1-GABAA receptor): 99.5%
- % inhib 10^−7 M, affinity for the α1-subunit of the GABAA receptor (α1-GABAA receptor): 58.5%

SMILES: CCOc1ccc2nc(-c3ccc(F)cc3)c(CC(=O)N(CC)CC)n2n1 [Example 66, 2-[6-Ethoxy-2-(4-fluoro-phenyl)-imidazo[1,2-b]pyridazin-3-yl]-N,N-diethyl-acetamide]
- inhibition in vivo at 98 µmol/kg (male CD1 mice): 96%
- % inhib 10^−5 M, affinity for the α2-subunit of the GABAA receptor (α2-GABAA receptor): 79.4%
- % inhib 10^−7 M, affinity for the α2-subunit of the GABAA receptor (α2-GABAA receptor): 7.8%
- % inhib 10^−5 M, affinity for the α1-subunit of the GABAA receptor (α1-GABAA receptor): 98.3%
- % inhib 10^−7 M, affinity for the α1-subunit of the GABAA receptor (α1-GABAA receptor): 50.4%

SMILES: CCOc1ccc2nc(-c3ccc(F)cc3)c(CC(=O)N3CCCCC3)n2n1 [Example 67, 2-[6-Ethoxy-2-(4-fluoro-phenyl)-imidazo[1,2-b]pyridazin-3-yl]-1-piperidin-1-yl-ethanone]
- inhibition in vivo at 98 µmol/kg (male CD1 mice): 90.8%
- % inhib 10^−5 M, affinity for the α2-subunit of the GABAA receptor (α2-GABAA receptor): 83.7%
- % inhib 10^−7 M, affinity for the α2-subunit of the GABAA receptor (α2-GABAA receptor): 8.8%
- % inhib 10^−5 M, affinity for the α1-subunit of the GABAA receptor (α1-GABAA receptor): 98.9%
- % inhib 10^−7 M, affinity for the α1-subunit of the GABAA receptor (α1-GABAA receptor): 42.2%

SMILES: COc1ccc(-c2nc3ccc(OC)nn3c2CC(=O)N2CCCCC2)cc1 [Example 78, 2-[6-Methoxy-2-(4-methoxy-phenyl)-imidazo[1,2-b]pyridazin-3-yl]-1-piperidin-1-yl-ethanone]
- inhibition in vivo at 98 µmol/kg (male CD1 mice): 91.1%
- % inhib 10^−5 M, affinity for the α1-subunit of the GABAA receptor (α1-GABAA receptor): 98.3%
- % inhib 10^−7 M, affinity for the α1-subunit of the GABAA receptor (α1-GABAA receptor): 26.5%

SMILES: Cc1ccc(NC(=O)Cc2c(-c3ccc(C)cc3)nc3ccc(C)nn23)cc1 [Example 87, 2-(6-Methyl-2-p-tolyl-imidazo[1,2-b]pyridazin-3-yl)-N-p-tolyl-acetamide]
- inhibition in vivo at 98 µmol/kg (male CD1 mice): 90.7%
- % inhib 10^−5 M, affinity for the α1-subunit of the GABAA receptor (α1-GABAA receptor): 99.3%
- % inhib 10^−7 M, affinity for the α1-subunit of the GABAA receptor (α1-GABAA receptor): 57.2%

SMILES: Cc1ccc(-c2nc3ccc(C)nn3c2CC(=O)NC2CCCC2)cc1 [Example 91, N-Cyclopentyl-2-(6-methyl-2-p-tolyl-imidazo[1,2-b]pyridazin-3-yl)-acetamide]
- inhibition in vivo at 98 µmol/kg (male CD1 mice): 93%
- % inhib 10^−5 M, affinity for the α1-subunit of the GABAA receptor (α1-GABAA receptor): 99.1%
- % inhib 10^−7 M, affinity for the α1-subunit of the GABAA receptor (α1-GABAA receptor): 45.8%

SMILES: Cc1ccc(-c2nc3ccc(C)nn3c2CC(=O)NC2CC2)cc1 [Example 93, N-Cyclopropyl-2-(6-methyl-2-p-tolyl-imidazo[1,2-b]pyridazin-3-yl)-acetamide]
- inhibition in vivo at 98 µmol/kg (male CD1 mice): 93.2%
- % inhib 10^−5 M, affinity for the α1-subunit of the GABAA receptor (α1-GABAA receptor): 100.0%
- % inhib 10^−7 M, affinity for the α1-subunit of the GABAA receptor (α1-GABAA receptor): 78.2%

SMILES: Cc1ccc(-c2nc3ccc(C)nn3c2CC(=O)Nc2ccc3ccccc3n2)cc1 [Example 94, 2-(6-Methyl-2-p-tolyl-imidazo[1,2-b]pyridazin-3-yl)-N-quinolin-2-yl-acetamide]
- inhibition in vivo at 98 µmol/kg (male CD1 mice): 93.5%
- % inhib 10^−5 M, affinity for the α1-subunit of the GABAA receptor (α1-GABAA receptor): 100.1%
- % inhib 10^−7 M, affinity for the α1-subunit of the GABAA receptor (α1-GABAA receptor): 65.1%

SMILES: Cc1ccc(-c2nc3ccc(C)nn3c2CC(=O)NN2CCOCC2)cc1 [Example 105, 2-(6-Methyl-2-p-tolyl-imidazo[1,2-b]pyridazin-3-yl)-N-morpholin-4-yl-acetamide]
- inhibition in vivo at 98 µmol/kg (male CD1 mice): 94%
- % inhib 10^−5 M, affinity for the α1-subunit of the GABAA receptor (α1-GABAA receptor): 98.8%
- % inhib 10^−7 M, affinity for the α1-subunit of the GABAA receptor (α1-GABAA receptor): 56.0%

SMILES: Cc1ccc(-c2nc3ccc(C)nn3c2CC(=O)NN2CCCCC2)cc1 [Example 106, 2-(6-Methyl-2-p-tolyl-imidazo[1,2-b]pyridazin-3-yl)-N-piperidin-1-yl-acetamide]
- inhibition in vivo at 98 µmol/kg (male CD1 mice): 94%
- % inhib 10^−5 M, affinity for the α1-subunit of the GABAA receptor (α1-GABAA receptor): 99.5%
- % inhib 10^−7 M, affinity for the α1-subunit of the GABAA receptor (α1-GABAA receptor): 53.7%
